Experiment [1] relates to human prostate LNCap tumor cell line. The experiment can be described thus: In vitro cell culture growth assay (MTS), LNCap. Particulars: Homo sapiens, LNCaP, 72 h, read-out: IC50 LNCap.
The next experiment addresses Human mTOR (FLAG-TOR) (Homo sapiens, UniProt P42345). The experiment can be described thus: mTOR kinase assay (DELFIA format, purified enzyme). The following applies: read-out: IC50 mTOR. The experiment is classed as biochemical.

Human mTOR (FLAG-TOR), sequence (P42345 1360-2549 limits assumed): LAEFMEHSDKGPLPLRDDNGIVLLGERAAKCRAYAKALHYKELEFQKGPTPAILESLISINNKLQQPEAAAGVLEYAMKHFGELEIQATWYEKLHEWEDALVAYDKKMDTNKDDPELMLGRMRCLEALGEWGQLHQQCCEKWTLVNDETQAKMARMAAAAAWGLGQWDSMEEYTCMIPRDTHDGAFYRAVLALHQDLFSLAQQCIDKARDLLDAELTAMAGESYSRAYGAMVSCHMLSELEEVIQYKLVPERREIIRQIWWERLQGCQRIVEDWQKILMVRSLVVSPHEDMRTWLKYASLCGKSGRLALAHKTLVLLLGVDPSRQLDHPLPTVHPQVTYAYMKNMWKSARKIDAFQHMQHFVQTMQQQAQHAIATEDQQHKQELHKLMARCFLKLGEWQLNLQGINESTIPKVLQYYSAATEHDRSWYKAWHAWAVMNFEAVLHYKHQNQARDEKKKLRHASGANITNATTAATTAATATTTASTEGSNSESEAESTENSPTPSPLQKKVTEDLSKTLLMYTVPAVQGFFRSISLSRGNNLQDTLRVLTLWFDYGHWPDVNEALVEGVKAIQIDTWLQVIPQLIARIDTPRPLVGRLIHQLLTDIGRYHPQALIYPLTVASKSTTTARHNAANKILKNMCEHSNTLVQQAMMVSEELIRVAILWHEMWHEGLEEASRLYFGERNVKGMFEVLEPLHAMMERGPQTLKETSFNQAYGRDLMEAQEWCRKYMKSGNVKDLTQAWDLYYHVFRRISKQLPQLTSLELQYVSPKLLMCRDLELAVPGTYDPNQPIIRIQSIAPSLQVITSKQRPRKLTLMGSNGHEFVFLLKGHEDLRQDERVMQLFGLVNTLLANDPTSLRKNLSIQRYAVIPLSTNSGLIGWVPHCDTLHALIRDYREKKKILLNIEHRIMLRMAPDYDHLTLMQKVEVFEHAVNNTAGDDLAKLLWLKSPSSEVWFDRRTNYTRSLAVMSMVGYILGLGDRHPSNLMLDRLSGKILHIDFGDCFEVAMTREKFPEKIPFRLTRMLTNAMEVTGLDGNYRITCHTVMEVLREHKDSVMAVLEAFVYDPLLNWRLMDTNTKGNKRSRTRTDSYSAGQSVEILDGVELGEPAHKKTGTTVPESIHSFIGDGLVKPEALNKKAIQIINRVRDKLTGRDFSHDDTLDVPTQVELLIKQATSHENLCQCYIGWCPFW

On to `O=C(Nc1ccncc1)Nc1ccc(-c2nc(N3CCN(C(=O)c4ccncc4)CC3)nc(N3CC4CCC(C3)O4)n2)cc1` [Example 113, 1-{4-[4-(4-isonicotinoylpiperazin-1-yl)-6-(8-oxa-3-azabicyclo[3.2.1]oct-3-yl)-1,3,5-triazin-2-yl]phenyl}-3-pyridin-4-ylurea], for which the IC50 turned out to be 120 nM in experiment [1] and 3.7 nM at Human mTOR (FLAG-TOR).
For the molecule `FC(F)c1nc2ccccc2n1-c1nc(N2CC3CCC(C2)O3)nc(N2CC3CCC(C2)O3)n1` [Example 138, 2-(difluoromethyl)-1-(4,6-di-8-oxa-3-azabicyclo[3.2.1]oct-3-yl-1,3,5-triazin-2-yl)-1H-benzimidazole], the results for the half-maximal inhibitory concentration (IC50) (in experiment [1]; on Human mTOR (FLAG-TOR)) were 680 nM and 43.5 nM, respectively.
For `FC(F)c1nc2ccccc2n1-c1nc(N2CCOCC2)nc(N2CC3CCC(C2)O3)n1` [Example 139, 2-(difluoromethyl)-1-[4-morpholin-4-yl-6-(8-oxa-3-azabicyclo[3.2.1]oct-3-yl)-1,3,5-triazin-2-yl]-1H-benzimidazole], in that order: 180 nM and 74 nM.
The matching figures for `CCN(CC)c1nc(-c2ccc(NC(=O)Nc3cccnc3)cc2)nc(N2CC3CCC(C2)O3)n1` [Example 194, 1-{4-[4-(diethylamino)-6-(8-oxa-3-azabicyclo[3.2.1]oct-3-yl)-1,3,5-triazin-2-yl]phenyl}-3-pyridin-3-ylurea]: 600 nM and 27 nM.
The matching figures for `CCN(C)c1nc(-c2ccc(NC(=O)Nc3cccnc3)cc2)nc(N2CC3CCC(C2)O3)n1` [Example 202, 1-(4-{4-[ethyl(methyl)amino]-6-(8-oxa-3-azabicyclo[3.2.1]oct-3-yl)-1,3,5-triazin-2-yl}phenyl)-3-pyridin-3-ylurea]: 700 nM and 5.5 nM.
As to `CCC(C)Nc1nc(-c2ccc(NC(=O)Nc3cccnc3)cc2)nc(N2CC3CCC(C2)O3)n1` (stereo not shown) [Example 203, 1-{4-[4-(sec-butylamino)-6-(8-oxa-3-azabicyclo[3.2.1]oct-3-yl)-1,3,5-triazin-2-yl]phenyl}-3-pyridin-3-ylurea], the IC50 stood at 78 nM in experiment [1] and 1 nM at Human mTOR (FLAG-TOR).
With `O=C(Nc1ccc(-c2nc(NC(CO)CO)nc(N3CC4CCC(C3)O4)n2)cc1)Nc1cccnc1` [Example 204, 1-{4-[4-{[2-hydroxy-1-(hydroxymethyl)ethyl]amino}-6-(8-oxa-3-azabicyclo[3.2.1]oct-3-yl)-1,3,5-triazin-2-yl]phenyl}-3-pyridin-3-ylurea], the concentration for half-maximal inhibition (IC50) in experiment [1] was determined as 6000 nM; on Human mTOR (FLAG-TOR), 3.5 nM.
For `O=C(Nc1ccc(-c2nc(N(CCO)CCO)nc(N3CC4CCC(C3)O4)n2)cc1)Nc1cccnc1` [Example 205, 1-(4-{4-[bis(2-hydroxyethyl)amino]-6-(8-oxa-3-azabicyclo[3.2.1]oct-3-yl)-1,3,5-triazin-2-yl}phenyl)-3-pyridin-3-ylurea], in that order: 400 nM and 2 nM.
For `O=C(Nc1ccc(-c2nc(N3CC4CCC(C3)O4)nc(N3C[C@@H]4C[C@H]3CN4)n2)cc1)Nc1cccnc1` [Example 206, 1-(4-{4-[(1S,4S)-2,5-diazabicyclo[2.2.1]hept-2-yl]-6-(8-oxa-3-azabicyclo[3.2.1]oct-3-yl)-1,3,5-triazin-2-yl}phenyl)-3-pyridin-3-ylurea], in that order: 5100 nM and 56 nM.
For `CN1CCN(c2ccc(Nc3nc(-c4ccc(NC(=O)Nc5cccnc5)cc4)nc(N4CC5CCC(C4)O5)n3)cc2)CC1` [Example 207, 1-{4-[4-{[4-(4-methylpiperazin-1-yl)phenyl]amino}-6-(8-oxa-3-azabicyclo[3.2.1]oct-3-yl)-1,3,5-triazin-2-yl]phenyl}-3-pyridin-3-ylurea], in that order: 33.3 nM and 0.84 nM.
Regarding `O=C(Nc1ccc(-c2nc(Nc3ccc(N4CCNCC4)cc3)nc(N3CC4CCC(C3)O4)n2)cc1)Nc1cccnc1` [Example 208, 1-(4-{4-(8-oxa-3-azabicyclo[3.2.1]oct-3-yl)-6-[(4-piperazin-1-ylphenyl)amino]-1,3,5-triazin-2-yl}phenyl)-3-pyridin-3-ylurea], the half-inhibitory concentration (IC50) in experiment [1] worked out at 50 nM; at Human mTOR (FLAG-TOR), 0.5 nM.

For orientation: IC50 means the concentration that gives 50% inhibition.

(Values after patent publication US20090304692A1, “TRIAZINE COMPOUNDS AS PI3 KINASE AND MTOR INHIBITORS” (Wyeth, priority 2008, published 2009).)
